ChEMBL document CHEMBL5523720, “Identification of novel GSPT1 degraders by virtual screening and bioassay” (Eur J Med Chem, 2024)
Calls of active or inactive are those of the source. The calls are words filed in the database; no cut-off is given here.

Assays:
[1] = biological target: Eukaryotic peptide chain release factor GTP-binding subunit ERF3A (Homo sapiens) (UniProt P15170); assay: Induction of GSPT1 degradation in human OCI-AML2 cells at 1 uM incubated for 8 hrs by Western blotting analysis; format: cell-based
Chain of Eukaryotic peptide chain release factor GTP-binding subunit ERF3A (Homo sapiens) (P15170 whole entry): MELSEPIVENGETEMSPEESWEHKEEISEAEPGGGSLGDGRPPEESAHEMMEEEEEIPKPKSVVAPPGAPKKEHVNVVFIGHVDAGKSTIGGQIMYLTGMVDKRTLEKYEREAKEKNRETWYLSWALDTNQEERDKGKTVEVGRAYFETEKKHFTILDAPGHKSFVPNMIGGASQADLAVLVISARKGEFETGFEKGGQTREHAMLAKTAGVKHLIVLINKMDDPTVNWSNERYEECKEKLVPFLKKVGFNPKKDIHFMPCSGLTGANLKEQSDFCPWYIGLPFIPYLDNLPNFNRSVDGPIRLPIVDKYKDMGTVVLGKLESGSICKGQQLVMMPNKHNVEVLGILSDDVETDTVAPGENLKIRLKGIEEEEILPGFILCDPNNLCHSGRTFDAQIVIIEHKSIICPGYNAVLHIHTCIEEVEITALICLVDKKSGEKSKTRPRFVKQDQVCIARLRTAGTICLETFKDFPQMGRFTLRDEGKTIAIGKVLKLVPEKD

[2] = biological target: Protein cereblon/Eukaryotic peptide chain release factor GTP-binding subunit ERF3A (Homo sapiens) (UniProt Q96SW2+P15170); assay: Induction of CRBN to GSPT1 protein-protein interaction in human U-937 cells at 1 uM pretreated with MG132 for 1 hr followed by compound addition and measured after 8 hrs by immunoprecipitation assay; format: cell-based; conditions: filed as activator
Chain of Protein cereblon/Eukaryotic peptide chain release factor GTP-binding subunit ERF3A (Homo sapiens) (P15170 whole entry, looked up): as the sequence (P15170 whole entry) above
Chain of Protein cereblon/Eukaryotic peptide chain release factor GTP-binding subunit ERF3A (Homo sapiens) (Q96SW2 whole entry, looked up): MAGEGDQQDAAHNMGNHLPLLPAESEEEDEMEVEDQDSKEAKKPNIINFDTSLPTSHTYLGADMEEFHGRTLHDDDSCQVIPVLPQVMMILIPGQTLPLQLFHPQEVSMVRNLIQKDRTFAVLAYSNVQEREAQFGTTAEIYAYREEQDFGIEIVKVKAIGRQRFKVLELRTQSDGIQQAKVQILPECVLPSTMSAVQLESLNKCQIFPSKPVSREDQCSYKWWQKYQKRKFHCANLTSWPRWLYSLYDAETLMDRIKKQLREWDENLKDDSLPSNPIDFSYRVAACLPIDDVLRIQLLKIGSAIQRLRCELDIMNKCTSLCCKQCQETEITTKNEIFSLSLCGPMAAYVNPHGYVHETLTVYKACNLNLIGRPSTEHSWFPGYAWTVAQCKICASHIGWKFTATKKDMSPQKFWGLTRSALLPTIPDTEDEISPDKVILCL

OCI-AML2 [3] = assay: Antiproliferative activity against human OCI-AML2 cells incubated for 48 hrs by MTS assay; format: functional, cell-based; conditions: OCI-AML2, 48 h
K562 = assay: Antiproliferative activity against human K562 cells incubated for 48 hrs by MTS assay; format: functional, cell-based; conditions: K562, 48 h
[4] = biological target: Eukaryotic peptide chain release factor GTP-binding subunit ERF3A (Homo sapiens) (UniProt P15170); assay: Induction of GSPT1 degradation in human U-937 cells at 1 uM incubated for 8 hrs by Western blotting analysis; format: cell-based
U-937 [5] = assay: Antiproliferative activity against human U-937 cells incubated for 48 hrs by MTS assay; format: functional, cell-based; conditions: U-937, 48 h
U-266 = assay: Antiproliferative activity against human U-266 cells incubated for 48 hrs by MTS assay; format: functional, cell-based; conditions: U-266, 48 h
[6] = biological target: Eukaryotic peptide chain release factor GTP-binding subunit ERF3A (Homo sapiens) (UniProt P15170); assay: Induction of GSPT1 degradation in human OCI-AML2 cells at 10 uM incubated for 8 hrs by Western blotting analysis; format: cell-based
OCI-AML2 [7] = assay: Downregulation of CK1alpha in human OCI-AML2 cells incubated for 8 hrs by Western blotting analysis; format: functional, cell-based; conditions: dose 5-40 µM
U-937 [8] = assay: Downregulation of CK1alpha in human U-937 cells incubated for 8 hrs by Western blotting analysis; format: functional, cell-based; conditions: dose 5-40 µM
U-937 [9] = assay: Downregulation of GSPT1 in human U-937 cells incubated for 8 hrs by Western blotting analysis; format: functional, cell-based; conditions: dose 5-40 µM
OCI-AML2 [10] = assay: Downregulation of GSPT1 in human OCI-AML2 cells incubated for 8 hrs by Western blotting analysis; format: functional, cell-based; conditions: dose 5-40 µM
OCI-AML2 [11] = assay: Downregulation of IKZF1 in human OCI-AML2 cells incubated for 8 hrs by Western blotting analysis; format: functional, cell-based; conditions: dose 5-40 µM
[12] = biological target: Eukaryotic peptide chain release factor GTP-binding subunit ERF3A (Homo sapiens) (UniProt P15170); assay: Induction of GSPT1 degradation in human U-937 cells at 10 uM incubated for 8 hrs by Western blotting analysis; format: cell-based
U-937 [13] = assay: Downregulation of IKZF1 in human U-937 cells incubated for 8 hrs by Western blotting analysis; format: functional, cell-based; conditions: dose 5-40 µM

O=C1CCC(N2Cc3cc(CNC(=O)C(F)(F)c4ccc(Cl)cc4)ccc3C2=O)C(=O)N1 (stereo unspecified)
Activity [1]: Active
Activity [2]: Active
IC50 (OCI-AML2 [3]): 0.01 µM
IC50 (K562): > 40 µM
Activity [4]: Active
IC50 (U-937 [5]): < 0.032 µM
IC50 (U-266): 0.04 µM

Cc1nc2c(C)cccc2cc1C(=O)N/N=C/c1cccc([N+](=O)[O-])c1
IC50 (OCI-AML2 [3]): 2.68 µM
IC50 (K562): 12.8 µM
IC50 (U-937 [5]): 9.9 µM
IC50 (U-266): 7.13 µM

Cc1nc2c(C)cccc2cc1C(=O)N/N=C/c1ccccc1Cl
IC50 (OCI-AML2 [3]): 2.66 µM
IC50 (K562): > 40 µM
IC50 (U-937 [5]): 6.89 µM
IC50 (U-266): 3.93 µM

Cc1nc2c(C)cccc2cc1C(=O)N/N=C/c1c(C)[nH]c2ccccc12
IC50 (OCI-AML2 [3]): 10.4 µM
IC50 (K562): 11.1 µM
IC50 (U-937 [5]): 20 µM
IC50 (U-266): 17.4 µM

Cc1ccc2nc(C)c(C(=O)N/N=C/c3cccc(O)c3)cc2c1
IC50 (OCI-AML2 [3]): > 40 µM
IC50 (K562): > 40 µM
IC50 (U-937 [5]): > 40 µM
IC50 (U-266): > 40 µM

COc1ccc2ccccc2c1/C=N/NC(=O)c1cc2cccc(C)c2nc1C
IC50 (OCI-AML2 [3]): > 40 µM
IC50 (K562): > 40 µM
IC50 (U-937 [5]): > 40 µM
IC50 (U-266): > 40 µM

Cc1nc2c(C)cccc2cc1C(=O)N/N=C/c1cccc(Cl)c1
IC50 (OCI-AML2 [3]): 2.49 µM
IC50 (K562): 9.92 µM
IC50 (U-937 [5]): 4.31 µM
IC50 (U-266): 3.1 µM

Cc1nc2c(C)cccc2cc1C(=O)N/N=C/c1cccc(O)c1
Activity [6]: Active
Activity (OCI-AML2 [7]): Dose-Dependent Effect
IC50 (OCI-AML2 [3]): 17.2 µM
Activity (U-937 [8]): Dose-Dependent Effect
IC50 (K562): 19.4 µM
Activity (U-937 [9]): Dose-Dependent Effect
Activity (OCI-AML2 [10]): Dose-Dependent Effect
Activity (OCI-AML2 [11]): Dose-Dependent Effect
IC50 (U-937 [5]): 22.6 µM
Activity [12]: Active
Activity (U-937 [13]): Dose-Dependent Effect
IC50 (U-266): 17.7 µM

Cc1nc2c(C)cccc2cc1C(=O)N/N=C/c1cccnc1
IC50 (OCI-AML2 [3]): 15.6 µM
IC50 (K562): > 40 µM
IC50 (U-937 [5]): > 40 µM
IC50 (U-266): 26.6 µM

Cc1nc2ccccc2cc1C(=O)N/N=C/c1ccccn1
IC50 (OCI-AML2 [3]): > 40 µM
IC50 (K562): > 40 µM
IC50 (U-937 [5]): > 40 µM
IC50 (U-266): > 40 µM
